In patent publication US20130243847A1, “ACTIVATED CREATININE AND PRECURSORS THEREOF AS ANTIBACTERIAL AGENTS, COMPOSITIONS AND PRODUCTS CONTAINING SUCH AGENTS AND USE THEREOF” (BOARD OF REGENTS OF THE UNIVERSITY OF NEBRASKA, priority 2010, published 2013):

Key:
Assay type in all cases: cell-based
S. aureus [1] = test: Disc diffusion assay in hydrogel carrier (Example 8)
Protocol: Separate formulations of antibacterially-activated CRN and a precursor of antibacterially-activated CRN, CEE, were prepared by admixing the respective antibacterial agent with a hydrogel (Advanced Medical Solutions Ltd, UK.) in varying amounts to provide final concentrations of 1 M, 500 mM, 250 mM and 125 mM. Approximately 50 μL of each formulation at the four (4) different molar concentrations was added to a 6 mm disc and inverted onto a brain heart infusion agar plate that was previously spread with S. aureus suspended in PBS at 10^5 organisms per mL. Plates were incubated at 37° C. overnight and clear zones showing inhibition of bacterial growth were measured. The hydrogel carrier including no bacterial agent (0 mM) was used as a control.

M. luteus = test: Growth in broth with CEE at different concentrations (Example 3, FIG. 2B); conditions: broth culture, absorbance over time
Protocol: (§1) The CEE precursor of antibacterially-activated CRN was diluted at different concentrations into Lederberg's broth (LB), which was then inoculated to 10^4/mL with S. aureus. The cultures were incubated in capped plastic tubes at 37° C. and aerated by tumbling using a tube rotating device.
A similar experiment was conducted with the same precursor of antibacterially-activated CRN and tested on M. luteus.

Micrococcus sp. = test: Selective growth on BHI agar, mixture of three organisms (Example 12, FIG. 11C)
Protocol: (§2) Colonies of Micrococcus sp., Rhodotorula sp. and Saccharomyces sp. grown on brain heart infusion agar (BHI) were suspended in PBS to 0.30 OD, 580 nm. An equal volume of the three (3) organisms were combined and the mixture streaked onto plates containing BHI agar alone or BHI agar supplemented with a precursor of antibacterially-activated CRN, CEE, and incubated 48 hours at 37° C.

Saccharomyces sp. [2] = test: as above
Protocol: as §2

Rhodotorula sp. = test: as above
Protocol: as §2

[3] = system: Staphylococcus aureus methicillin resistant (MRSA); test: Disc diffusion assay, CEE vs gentamicin; conditions: S. aureus MRSA; 50 mg anhydrous topical cream with 28% by weight agent; gentamicin 10 μg disc
Protocol: (§3) This testing involved the use of 50 mg of an anhydrous topical cream containing the antibacterial agent of the invention in an amount of 28% by weight and 10 μg of gentamicin, impregnated into a standard commercially available disc (Remel, Lenoxa Kans.).

[4] = system: Candida albicans laboratory strain 24433; test: Disc diffusion assay, CEE vs gentamicin; conditions: C. albicans laboratory strain 24433; 50 mg anhydrous topical cream with 28% by weight agent; gentamicin 10 μg disc
Protocol: as §3

[5] = system: Bacillus cereus laboratory strain; test: Disc diffusion assay, CEE vs gentamicin; conditions: B. cereus laboratory strain; 50 mg anhydrous topical cream with 28% by weight agent
Protocol: as §3

[6] = system: Staphylococcus aureus UMSA-1 isolate; test: Disc diffusion assay, CEE vs gentamicin; conditions: S. aureus UMSA-1 isolate; 50 mg anhydrous topical cream with 28% by weight agent
Protocol: as §3

[7] = system: Saccharomyces sp. isolate from baker's yeast; test: Disc diffusion assay, CEE vs gentamicin; conditions: 50 mg anhydrous topical cream with 28% by weight agent
Protocol: as §3

[8] = system: Enterococcus faecalis laboratory strain 29212; test: Disc diffusion assay, CEE vs gentamicin; conditions: E. faecalis laboratory strain 29212; 50 mg anhydrous topical cream with 28% by weight agent; gentamicin 10 μg disc
Protocol: as §3

[9] = system: Escherichia coli laboratory strain 35150; test: Disc diffusion assay, CEE vs gentamicin; conditions: E. coli laboratory strain 35150; 50 mg anhydrous topical cream with 28% by weight agent; gentamicin 10 μg disc
Protocol: as §3

[10] = system: Pseudomonas aeruginosa high level resistance (HLR); test: Disc diffusion assay, CEE vs gentamicin; conditions: P. aeruginosa HLR; 50 mg anhydrous topical cream with 28% by weight agent; gentamicin 10 μg disc
Protocol: as §3

[11] = system: Rhodotorula sp. laboratory isolate; test: Disc diffusion assay, CEE vs gentamicin; conditions: 50 mg anhydrous topical cream with 28% by weight agent
Protocol: as §3

[12] = system: Pseudomonas fluorescens laboratory strain; test: Disc diffusion assay, CEE vs gentamicin; conditions: P. fluorescens laboratory strain; 50 mg anhydrous topical cream with 28% by weight agent
Protocol: as §3

[13] = system: Staphylococcus epidermidis laboratory strain; test: Disc diffusion assay, CEE vs gentamicin; conditions: S. epidermidis laboratory strain; 50 mg anhydrous topical cream with 28% by weight agent
Protocol: as §3

[14] = system: Bacillus subtilis laboratory strain; test: Disc diffusion assay, CEE vs gentamicin; conditions: B. subtilis laboratory strain; 50 mg anhydrous topical cream with 28% by weight agent
Protocol: as §3

[15] = system: Enterococcus faecium vancomycin resistant (VRE); test: Disc diffusion assay, CEE vs gentamicin; conditions: E. faecium VRE; 50 mg anhydrous topical cream with 28% by weight agent; gentamicin 10 μg disc
Protocol: as §3

[16] = system: Micrococcus luteus laboratory isolate; test: Disc diffusion assay, CEE vs gentamicin; conditions: M. luteus laboratory isolate; 50 mg anhydrous topical cream with 28% by weight agent
Protocol: as §3

[17] = system: Staphylococcus aureus laboratory strain 29213; test: Disc diffusion assay, CEE vs gentamicin; conditions: S. aureus laboratory strain 29213; 50 mg anhydrous topical cream with 28% by weight agent; gentamicin 10 μg disc
Protocol: as §3

[18] = system: Brevibacterium linens ATCC 9175; test: Disc diffusion assay, CEE vs gentamicin; conditions: B. linens ATCC 9175; 50 mg anhydrous topical cream with 28% by weight agent
Protocol: as §3

Saccharomyces sp. [19] = test: Selective growth on LBD agar, mixture of Micrococcus sp. and Saccharomyces sp. (Example 12, FIG. 11A)
Protocol: Colonies of Micrococcus sp. and Saccharomyces sp. grown on LB agar supplemented with 1% dextrose (LBD) were suspended in PBS to 0.30 A580 nm. An equal volume of the two organisms was combined and the mixture streaked onto LBD agar alone or LBD containing CEE and incubated at 37 C for 24 hours.

S. aureus [20] = test: Growth in Lederberg's broth with CEE at different concentrations (Example 3, FIG. 2A); conditions: inoculum 10^4/mL, 37° C., absorbance over time
Protocol: as §1

[21] = 300 and 400 mM CEE in BHI agar (data not shown)
[22] = 100 mM and 200 mM CEE in BHI agar, 48 hours, 37° C.

CCOC(=O)CN(C)C(=N)N [CEE, creatine ethyl ester]
zone of inhibition at 125000 µM (S. aureus [1]; Staphylococcus aureus): 7 mm
zone of inhibition at 250000 µM (S. aureus [1]; Staphylococcus aureus): 10 mm
zone of inhibition at 500000 µM (S. aureus [1]; Staphylococcus aureus): 15 mm
Zone of Inhibition (S. aureus [1]; hydrogel, 1M, approx. 50 μL): 20 mm
concentration that inhibited growth of M. luteus (M. luteus): approximately 1 mM
growth of Micrococcus (Micrococcus sp.; 100 mM CEE in BHI agar, 48 hours, 37° C.): greatly retarded
growth of Micrococcus (Micrococcus sp.; 200 mM CEE in BHI agar, 48 hours, 37° C.): completely inhibited
growth of Micrococcus (Micrococcus sp.; [21]): inhibited the growth of Micrococcus
growth of Saccharomyces (Saccharomyces sp. [2]; [22]): enhanced
growth of Saccharomyces (Saccharomyces sp. [2]; [21]): did not affect the growth
growth of Rhodotorula (Rhodotorula sp.; [22]): enhanced
growth of Rhodotorula (Rhodotorula sp.; [21]): did not affect the growth
Zone of Inhibition [3]: 27 mm
Zone of Inhibition [4]: 0 mm
Zone of Inhibition [5]: 22 mm
Zone of Inhibition [6]: 24 mm
Zone of Inhibition [7]: 0 mm
Zone of Inhibition [8]: 19 mm
Zone of Inhibition [9]: 15 mm
Zone of Inhibition [10]: 25 mm
Zone of Inhibition [11]: 0 mm
Zone of Inhibition [12]: 18 mm
Zone of Inhibition [13]: 27 mm
Zone of Inhibition [14]: 20 mm
Zone of Inhibition [15]: 18 mm
Zone of Inhibition [16]: 22 mm
Zone of Inhibition [17]: 26 mm
Zone of Inhibition [18]: 40 mm
selectivity of media for yeast over Micrococcus sp. (Saccharomyces sp. [19]; 200 mM CEE in LBD agar, 37 C, 24 hours): selective for Saccharomyces
growth of Saccharomyces (Saccharomyces sp. [19]; 300-400 mM CEE in LBD agar (data not shown)): supported growth of Saccharomyces
concentration that inhibited growth of S. aureus (S. aureus [20]): approximately 32 mM
